One data set is described as follows: physchem. The text has this:
Suitable nonlimiting examples of counterions for forming salts with Compound A include benzene sulfonic acid (BSA), toluene sulfonic acid (TSA), sulfuric acid, hydrochloric acid, malonic acid, naphthalene-2-sulfonic acid, methane sulfonic acid, oxalic acid, tartaric acid, ethane sulfonic acid, cyclamic acid, maleic acid, or phosphoric acid.

Data set [1] can be described thus: Stability under compression forces representative of tableting. Type of data set: physicochemical. As to conditions: compression up to 200 MPa.
Data set [2] is described as follows: Dynamic vapor sorption (DVS) moisture sorption. The format is physicochemical. On the procedure: DVS—Method 1: DVS was measured via a SMS (Surface Measurement Systems) DVS Resolution. The relative humidity at 25° C. was calibrated against the deliquescence point of LiCl, Mg(NO3)2 and KCl.
DVS—Method 2: Moisture sorption data was collected using a DVS vapor sorption analyzer. A sample size of approximately 10-20 mg was used in a glass or metal pan. Hygroscopicity was evaluated from 40 to 90 to 0 to 90 to 40% RH in increments of 5% RH or from 40 to 0 to 95 to 0 to 95% RH in increments of 10% RH. Data for adsorption and desorption cycles were collected. Equilibrium criteria were set at 0.002% weight change in 1 minute with a maximum equilibration time of 180 minutes.

Data set [3] in a line: Solubility of Form 1 in aqueous media. Type of data set: physicochemical. The settings on record: aqueous buffer; aqueous media at pHs of 1-8.
A short description of data set [4]: Physical and chemical stability in excipient blends (ssNMR). Type of data set: physicochemical. The settings on record: 40° C./75% RH, 25° C./60% RH open, 40° C./75% RH closed.

The values below come from US20260193267A1, “Solid Forms of Naphthyridine Compounds” (AMGEN INC., priority 2023, published 2026).

“Also recorded” adds a separate entry of the source.

A word on the pKa: it is the negative logarithm of the acid dissociation constant. `Nc1nc2cnc(C(=O)N3CCOC[C@@H]3c3ccc(C(F)(F)F)cc3)cc2c2c1COC2` [Compound A] yielded a pKa in “physchem” of 4.27.

For orientation: solubility means the concentration that dissolves in the medium under given conditions. A high value points to much dissolved substance. `Nc1nc2cnc(C(=O)N3CCOC[C@@H]3c3ccc(C(F)(F)F)cc3)cc2c2c1COC2` [Form 1]: in data set [1], the “form change by DSC and XRPD after compression” value is listed as “no form change”. In addition, the “hygroscopicity by DVS” value in data set [2] (0% to 95% relative humidity at 25° C.) is listed as “non-hygroscopic; also recorded: non-hygroscopicity”. Also, the “change in form on DVS” value in data set [2] (0-95% relative humidity at 25° C.) was “no observable change in form”. For the same molecule, the solubility in data set [3] was greater than 10 µg/mL. In data set [4], the “physical and chemical stability by ssNMR” value is “physically and chemically stable”. The “degradation related to the Maillard reaction” value in data set [4] (after 2 weeks) was “no evidence of degradation related to the Maillard reaction”.
